For 29 molecules, IC50, EC50 and half-life results are on record in patent publication US9029384B2, “Phosphatidylinositol 3-kinase inhibitors” (Gilead Calistoga LLC, priority 2012, dated 2015).

Usually IC50 stands for the point on the concentration scale where inhibition reaches its midpoint. A word on the EC50: it is the concentration needed to bring the measured effect to its halfway point.

Each structure is given as a SMILES string. Where two headings read alike, the source gives them in different places.

The target of one data set is T1, PI3Kδ (Homo sapiens, UniProt O00329).
T1 construct: made in house
T1 sequence (O00329 whole entry): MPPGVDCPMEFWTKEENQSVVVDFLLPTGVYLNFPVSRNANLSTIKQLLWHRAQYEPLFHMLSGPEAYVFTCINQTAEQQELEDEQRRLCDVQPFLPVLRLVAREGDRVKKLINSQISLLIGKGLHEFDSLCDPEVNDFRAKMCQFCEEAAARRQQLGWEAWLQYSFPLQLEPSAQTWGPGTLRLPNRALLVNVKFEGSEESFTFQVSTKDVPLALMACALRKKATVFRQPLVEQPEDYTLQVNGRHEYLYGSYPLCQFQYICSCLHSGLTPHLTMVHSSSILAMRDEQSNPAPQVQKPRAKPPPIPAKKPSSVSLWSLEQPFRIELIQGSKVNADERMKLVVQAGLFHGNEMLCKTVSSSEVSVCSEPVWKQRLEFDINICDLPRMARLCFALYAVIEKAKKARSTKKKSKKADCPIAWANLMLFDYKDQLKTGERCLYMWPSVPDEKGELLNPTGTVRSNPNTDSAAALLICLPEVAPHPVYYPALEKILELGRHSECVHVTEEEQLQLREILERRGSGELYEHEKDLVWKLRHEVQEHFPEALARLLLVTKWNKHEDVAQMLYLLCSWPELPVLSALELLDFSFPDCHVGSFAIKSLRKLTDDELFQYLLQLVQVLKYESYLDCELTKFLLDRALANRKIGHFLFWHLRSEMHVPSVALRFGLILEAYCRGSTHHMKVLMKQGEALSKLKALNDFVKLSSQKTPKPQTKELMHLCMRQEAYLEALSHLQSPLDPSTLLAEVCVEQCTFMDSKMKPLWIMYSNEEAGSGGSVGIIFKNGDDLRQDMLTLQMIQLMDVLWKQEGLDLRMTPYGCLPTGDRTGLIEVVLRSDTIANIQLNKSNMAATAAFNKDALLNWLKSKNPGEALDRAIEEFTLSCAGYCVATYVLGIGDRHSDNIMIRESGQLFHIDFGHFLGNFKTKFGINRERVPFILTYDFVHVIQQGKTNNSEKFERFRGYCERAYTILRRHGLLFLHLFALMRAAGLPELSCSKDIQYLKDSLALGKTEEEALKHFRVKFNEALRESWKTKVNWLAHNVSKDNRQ
T1 sequence (P27986 whole entry partner): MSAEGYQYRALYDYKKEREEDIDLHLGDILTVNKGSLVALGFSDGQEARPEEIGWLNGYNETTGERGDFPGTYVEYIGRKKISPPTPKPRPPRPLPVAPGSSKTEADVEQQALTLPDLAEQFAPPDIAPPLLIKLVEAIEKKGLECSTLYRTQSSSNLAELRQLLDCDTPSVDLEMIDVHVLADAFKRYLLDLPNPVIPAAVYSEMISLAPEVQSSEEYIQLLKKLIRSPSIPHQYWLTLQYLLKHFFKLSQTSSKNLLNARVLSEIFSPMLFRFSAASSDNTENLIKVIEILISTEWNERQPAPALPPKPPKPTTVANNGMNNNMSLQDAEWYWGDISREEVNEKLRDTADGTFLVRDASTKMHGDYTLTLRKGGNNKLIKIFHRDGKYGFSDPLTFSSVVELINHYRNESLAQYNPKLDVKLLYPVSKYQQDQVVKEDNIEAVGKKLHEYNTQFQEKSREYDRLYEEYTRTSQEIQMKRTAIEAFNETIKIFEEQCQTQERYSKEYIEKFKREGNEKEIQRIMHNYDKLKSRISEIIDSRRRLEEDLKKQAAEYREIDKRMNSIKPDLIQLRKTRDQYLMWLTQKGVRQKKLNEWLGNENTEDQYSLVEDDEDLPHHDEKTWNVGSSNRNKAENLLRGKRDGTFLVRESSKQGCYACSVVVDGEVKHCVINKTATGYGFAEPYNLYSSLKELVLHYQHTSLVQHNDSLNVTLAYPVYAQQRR
Kind of data set: Enzymatic activity of PI3K isoforms, TR-FRET assay (PIP3 formation). The format is biochemical. Conditions: PI3Kδ; TR-FRET, 2×Km ATP, 10 μM PIP2; read-out: IC50. The method, boiled down:
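Recombinant heterodimeric class I PI3K; PIP3 product measured by TR-FRET competition with labelled PIP3 for Eu-GRP-1 PH domain. Reaction 30 min at 25 °C, stopped with 10 mM EDTA.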
For orientation: TR-FRET usually uses a lanthanide donor and a delayed reading to cut background.

Another data set deals with basophils. In words: Basophil activation in human whole blood (Flow2 CAST kit, CD63 positive cells). It counts as cell-based. The note with it: Homo sapiens. How it is done: Effect on basophil activation was measured in human whole blood using the Flow2 CAST® kit (Buhlmann Laboratories AG, Baselstrasse, Switzerland) following the protocol provided by the manufacturer with minor modifications. Human whole blood was collected into K2-EDTA venipuncture tubes. Whole blood samples were treated with either DMSO (0.3% final) or a serial dilution of compounds in DMSO for 60 minutes at 37° C. Basophils were then activated either with anti-FcεRI mAb or with fMLP. To activate basophils using the anti-FcεRI mAb; 50 μl of whole blood was mixed with 110 μl of stimulation buffer (B-BAT-STB) and 20 μl of anti-FcεRI (B-BAT-STCON). To activate basophils with fMLP; 50 μl of whole blood was mixed with 80 μl of stimulation buffer (B-BAT-STB) and 50 μl of fMLP (B-CCR-FMLP). Stimulation buffer was used as a negative control. 20 μl of the staining reagent (combination of anti-human CD63-FITC and anti-human CCR3-PE mAbs) was then added to each tube. […] Subsequently, erythrocytes were lysed and fixed by the addition of 2 ml of lysing solution (B-BAT-LYR) for 10 min at room temperature. Cells were pelleted by centrifugation at 1200 rpm for 10 min at room temperature in a swing-out rotor. Supernatant was aspirated and cell pellet resuspended in 400 μl of wash buffer. Flow cytometric analysis of the basophil activation was performed on a FC500MPL flow cytometer (Beckman Coulter Inc., Fullerton, Calif.). CCR3-staining and side scatter were applied to gate at least 200 basophils that expressed a high density of CCR3. The percent CD63 positive cells within the gated basophil population were determined in different treatment groups and normalized to the vehicle control (0.3% DMSO) with anti-FcεRI mAb of fMLP stimulus as 100%. Final compound concentration was adjusted to correct for dilution effect of added reagents. The EC50 values were calculated from the analysis of the dose-response curves to a four-parameter equation. All EC50 values represent geometric mean values and are reported in units of nM.

Data set [1] can be described thus: Hepatocyte stability, 0.01% final DMSO, 1 μM substrate (t1/2^b). It counts as in vitro ADME. Conditions: human, hepatocytes, TA with 0.01% final DMSO. As to the method:
Alternatively, assay reagents and/or conditions can be modified in determining the inhibitory activities to PI3K isomers. In additional studies, similar assay using TA and 0.01% final DMSO concentration were incubated with 1 million hepatocytes/mL at 1 μM substrate in duplicate. The incubation was carried out at 37° C. with 5% CO2 and saturating humidity.

[2] abbreviates: basophils activated with anti-FcεRI mAb or fMLP, geometric mean.
Setting [3] is: 1 μM substrate, samples at 0, 1, 3, 6 hours, read-out: human hepatocyte t½^b.
[4] abbreviates: human hepatocytes, read-out: t1/2^b.

With `CC(Nc1nc(N)nc(N)c1C#N)c1nc2ccc(F)c(Cl)c2c(=O)n1-c1cccc(C#N)c1` (single isomer, unassigned) [Compound 176a], the IC50 on PI3Kδ was 10 to 50 nM. Besides, the EC50 in the data set on basophils (setting [2]) is 1 to 10 nM. For the same molecule, in data set [1] (setting [3]), the half-life at 1 μM is over 10 h.
The corresponding values for `CCC(Nc1nc(N)nc(N)c1C#N)c1nc2c(F)ccc(F)c2c(=O)n1-c1ccccc1` (single isomer, unassigned) [Compound 150a] are 1 to 10 nM, 1 to 10 nM and 3 to 6 h.
As to `CC(Nc1nc(N)nc(N)c1C(N)=O)c1nc2cccc(Cl)c2c(=O)n1-c1ccccc1` (single isomer, unassigned) [Compound 183a], the IC50 on PI3Kδ is under 1 nM. Further, the concentration for a half-maximal effect (EC50) in the data set with basophils (setting [2]) is 10 to 50 nM. Moreover, the half-life at 1 μM in data set [1] (setting [3]) fell in the range of 6 to 10 h.
`CCC(Nc1nc(N)nc(N)c1C#N)c1nc2c(F)ccc(F)c2c(=O)n1-c1cccc(F)c1` (single isomer, unassigned) [Compound 151a]: at PI3Kδ, the IC50 fell in the range of 1 to 10 nM. Also, in the data set on basophils (setting [2]), the EC50 was in the range of 1 to 10 nM. Moreover, the half-life at 1 μM in data set [1] (setting [3]) lay within 3 to 6 h.
In the case of `CC(Nc1nc(N)nc(N)c1C#N)c1nc2c(F)ccc(Cl)c2c(=O)n1-c1cccc(C#N)c1` (single isomer, unassigned) [Compound 181a], the IC50 at PI3Kδ lay within 1 to 10 nM. Besides, in the data set on basophils (setting [2]), the EC50 was under 1 nM. In addition, the half-life at 1 μM in data set [1] (setting [3]) was 6 to 10 h.
Consider `CC(Nc1nc(N)nc(N)c1C#N)c1nc2cccc(F)c2c(=O)n1-c1cccc(F)c1` (single isomer, unassigned) [Compound 182a], for which the IC50 at PI3Kδ was in the range of 1 to 10 nM. Moreover, the EC50 with basophils (basophil activation) is under 2 nM; in the data set with basophils (setting [2]) it was 1 to 10 nM. For the same molecule, the half-life at 1 μM was over 10 h in data set [1] (setting [3]) and over 20 h in data set [1] (setting [4]).
Take `CC(Nc1nc(N)nc(N)c1Cl)c1nc2c(F)ccc(Cl)c2c(=O)n1-c1ccccc1` (single isomer, unassigned) [Compound 127a]: the concentration for half-maximal inhibition (IC50) on PI3Kδ was in the range of 1 to 10 nM. Also, the EC50 with basophils (setting [2]) is 1 to 10 nM. The half-life at 1 μM in data set [1] (setting [3]) fell in the range of 1 to 3 h.
On to `CCC(Nc1nc(N)nc(N)c1C#N)c1nc2c(F)ccc(F)c2c(=O)n1-c1cccc(C#N)c1` (single isomer, unassigned) [Compound 152a], for which the IC50 at PI3Kδ is 10 to 50 nM. Also, in the data set on basophils (setting [2]), the concentration for a half-maximal effect (EC50) was 1 to 10 nM. For the same molecule, in data set [1] (setting [3]), the half-life at 1 μM was 3 to 6 h.
On the same counts, the results for `CC(Nc1nc(N)nc(N)c1C#N)c1nc2cccc(Cl)c2c(=O)n1-c1cccc(C(F)(F)F)c1` (single isomer, unassigned) [Compound 47a] are 1 to 10 nM, 1 to 10 nM and 3 to 6 h.
On the same counts, the results for `CC(Nc1nc(N)nc(N)c1C#N)c1nc2cccc(S(C)(=O)=O)c2c(=O)n1-c1cc(F)cc(C(F)F)c1` (single isomer, unassigned) [Compound 98a] are 10 to 50 nM, over 50 nM and 3 to 6 h.
Take `C[C@H](Nc1ncnc(N)c1C#N)c1nc2cccc(F)c2c(=O)n1-c1cccc(F)c1` [Compound V, reference compound]: in the data set with basophils (basophil activation), the EC50 is over 4 nM. In data set [1] (setting [4]), the half-life at 1 μM was under 1 h.
Consider `CC(Nc1nc(N)nc(N)c1C#N)c1nc2c(C(F)F)cccc2c(=O)n1-c1ccccc1` (single isomer, unassigned) [Compound 56a], for which, at PI3Kδ, the IC50 lay within 10 to 50 nM. Moreover, in the data set on basophils (setting [2]), the EC50 fell in the range of 1 to 10 nM. The half-life at 1 μM in data set [1] (setting [3]) lay in the range of 6 to 10 h.
On the same counts, the results for `CC(Nc1nc(N)nc(N)c1C#N)c1nc2cccc(Cl)c2c(=O)n1-c1cccc(CC(F)F)c1` (single isomer, unassigned) [Compound 120a] are 1 to 10 nM, 1 to 10 nM and 1 to 3 h.
With `CC(Nc1nc(N)nc(N)c1C#N)c1nc2c(Cl)cccc2c(=O)n1-c1ccccc1` (single isomer, unassigned) [Compound 22a], the IC50 on PI3Kδ was 1 to 10 nM. Also, the 50% effective concentration (EC50) in the data set with basophils (setting [2]) fell in the range of 1 to 10 nM. For the same molecule, the half-life at 1 μM in data set [1] (setting [3]) is over 10 h.
For `COc1cc(C(F)F)cc(-n2c(C(C)Nc3nc(N)nc(N)c3C#N)nc3cccc(Cl)c3c2=O)c1` (single isomer, unassigned) [Compound 190a], the IC50 at PI3Kδ fell in the range of 1 to 10 nM. In addition, the EC50 in the data set on basophils (setting [2]) was in the range of 10 to 50 nM. Further, the half-life at 1 μM in data set [1] (setting [3]) fell in the range of 1 to 3 h.
The corresponding values for `CC(Nc1nc(N)nc(N)c1C#N)c1nc2c(Cl)cc(F)cc2c(=O)n1-c1cc(F)cc(F)c1` (single isomer, unassigned) [Compound 89a] are 1 to 10 nM, 1 to 10 nM and 6 to 10 h.
For `CC(Nc1nc(N)nc(N)c1C#N)c1nc2ccc(F)cc2c(=O)n1-c1cccc(C#N)c1` (single isomer, unassigned) [Compound 13a], on PI3Kδ, the IC50 is 10 to 50 nM. The concentration giving a half-maximal response (EC50) in the data set with basophils (setting [2]) was 1 to 10 nM. The half-life at 1 μM in data set [1] (setting [3]) is over 10 h.
The corresponding values for `CC(Nc1nc(N)nc(N)c1C#N)c1nc2ccccc2c(=O)n1-c1cc(F)cc(F)c1` (single isomer, unassigned) [Compound 28a] are 10 to 50 nM, 1 to 10 nM and over 10 h.
`CC(Nc1nc(N)nc(N)c1C#N)c1nc2cccc(Cl)c2c(=O)n1-c1c(F)cccc1F` (single isomer, unassigned) [Compound 145a]: at PI3Kδ, the IC50 is 1 to 10 nM. Besides, the EC50 in the data set on basophils (setting [2]) lay in the range of 1 to 10 nM. Moreover, the half-life at 1 μM in data set [1] (setting [3]) was in the range of 6 to 10 h.
Regarding `COCC(Nc1nc(N)nc(N)c1C#N)c1nc2cccc(Cl)c2c(=O)n1-c1cc(F)cc(F)c1` (single isomer, unassigned) [Compound 135a], the 50% inhibitory concentration (IC50) on PI3Kδ lay within 1 to 10 nM. For the same molecule, the EC50 in the data set with basophils (setting [2]) is 1 to 10 nM. Moreover, the half-life at 1 μM in data set [1] (setting [3]) lay within 1 to 3 h.
On to `CC(Nc1nc(N)nc(N)c1C#N)c1nc2cccc(C(N)=O)c2c(=O)n1-c1cc(F)cc(F)c1` (single isomer, unassigned) [Compound 91a], for which, at PI3Kδ, the IC50 lay within 10 to 50 nM. Also, the concentration giving a half-maximal response (EC50) with basophils (setting [2]) fell in the range of 10 to 50 nM. The half-life at 1 μM in data set [1] (setting [3]) is over 10 h.
As to `CCC(Nc1nc(N)nc(N)c1C#N)c1nc2ccc(F)cc2c(=O)n1-c1cccc(F)c1` (single isomer, unassigned) [Compound 178a], at PI3Kδ, the IC50 lay within 1 to 10 nM. The EC50 with basophils (setting [2]) lay in the range of 1 to 10 nM. For the same molecule, the half-life at 1 μM in data set [1] (setting [3]) is over 10 h.
Regarding `CC(Nc1nc(N)nc(N)c1C#N)c1nc2c(C#N)cc(F)cc2c(=O)n1-c1ccccc1` (single isomer, unassigned) [Compound 155a], on PI3Kδ, the IC50 lay within 1 to 10 nM. Moreover, the EC50 in the data set on basophils (setting [2]) fell in the range of 10 to 50 nM. For the same molecule, in data set [1] (setting [3]), the half-life at 1 μM is over 10 h.
The corresponding values for `CCC(Nc1nc(N)nc(N)c1C#N)c1nc2cccc(F)c2c(=O)n1-c1cccc(F)c1` (single isomer, unassigned) [Compound 179a] are 1 to 10 nM, 1 to 10 nM and 6 to 10 h.
With `CC(Nc1nc(N)nc(N)c1C#N)c1nc2cccc(Cl)c2c(=O)n1-c1cc(F)cc(OC(F)(F)F)c1` (single isomer, unassigned) [Compound 193a], the IC50 on PI3Kδ was in the range of 1 to 10 nM. In addition, the EC50 with basophils (setting [2]) was in the range of 1 to 10 nM. The half-life at 1 μM in data set [1] (setting [3]) is 1 to 3 h.
`CC(Nc1nc(N)nc(N)c1C#N)c1nc2cccc(Cl)c2c(=O)n1-c1cccc(Cl)c1` (single isomer, unassigned) [Compound 8a]: the IC50 at PI3Kδ was under 1 nM. Also, the EC50 in the data set with basophils (setting [2]) was in the range of 1 to 10 nM. In addition, the half-life at 1 μM in data set [1] (setting [3]) is 3 to 6 h.
The corresponding values for `COc1cccc(-n2c(C(C)Nc3nc(N)nc(N)c3C#N)nc3cccc(Cl)c3c2=O)c1` (single isomer, unassigned) [Compound 185a] are under 1 nM, under 1 nM and 1 to 3 h.
Regarding `COc1cccc(-n2c(C(C)Nc3nc(N)nc(N)c3C#N)nc3cccc(Cl)c3c2=O)c1C` (single isomer, unassigned) [Compound 109a-2], the half-inhibitory concentration (IC50) at PI3Kδ was under 1 nM. The EC50 in the data set on basophils (setting [2]) lay within 1 to 10 nM. For the same molecule, the half-life at 1 μM in data set [1] (setting [3]) was 1 to 3 h.
The corresponding values for `CCCC(Nc1nc(N)nc(N)c1C#N)c1nc2cccc(F)c2c(=O)n1-c1cc(F)cc(F)c1` (single isomer, unassigned) [Compound 175a] are 1 to 10 nM, 1 to 10 nM and 6 to 10 h.
